According to the supplement of paper PMC10307832:

Legend:
Test in all cases: relative viability (nuclei count vs DMSO), 5 days (fraction); higher = more cells survive
DM3189 + Bortezomib = compound: C1CN(CCN1)C2=CC=C(C=C2)C3=CN4C(=C(C=N4)C5=CC=NC6=CC=CC=C56)N=C3 [DM3189] + CC(C)C[C@H](NC(=O)[C@H](Cc1ccccc1)NC(=O)c1cnccn1)B(O)O [Bortezomib] (partner 0.002 µM)
Outline: (§1)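 Five library-drug doses in √10 steps were combined with a fixed anchor-drug dose, or a single drug was given alone, by pin tool to lung cancer cell lines in 1536-well plates the day after seeding. Nuclei were stained and counted after 5 days. Relative viability is the nuclei count in treated wells over that in vehicle wells, taken as the median of duplicate plates.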

DM3189 + Linsitinib = compound: C1CN(CCN1)C2=CC=C(C=C2)C3=CN4C(=C(C=N4)C5=CC=NC6=CC=CC=C56)N=C3 [DM3189] + C[C@]1(O)C[C@@H](c2nc(-c3ccc4ccc(-c5ccccc5)nc4c3)c3c(N)nccn32)C1 [Linsitinib] (partner 1 µM)
Outline: as §1

DM3189 + Tozasertib = compound: C1CN(CCN1)C2=CC=C(C=C2)C3=CN4C(=C(C=N4)C5=CC=NC6=CC=CC=C56)N=C3 [DM3189] + Cc1cc(Nc2cc(N3CCN(C)CC3)nc(Sc3ccc(NC(=O)C4CC4)cc3)n2)n[nH]1 [Tozasertib] (partner 0.1 µM)
Outline: as §1

DM3189 + Phenformin = compound: C1CN(CCN1)C2=CC=C(C=C2)C3=CN4C(=C(C=N4)C5=CC=NC6=CC=CC=C56)N=C3 [DM3189] + N=C(N)NC(=N)NCCc1ccccc1 [Phenformin] (partner 250 µM)
Outline: as §1

DM3189 + Pemetrexed = compound: C1CN(CCN1)C2=CC=C(C=C2)C3=CN4C(=C(C=N4)C5=CC=NC6=CC=CC=C56)N=C3 [DM3189] + Nc1nc2[nH]cc(CCc3ccc(C(=O)N[C@@H](CCC(=O)O)C(=O)O)cc3)c2c(=O)[nH]1 [Pemetrexed] (partner 0.2 µM)
Outline: as §1

Cell Line	relative viability (DM3189 + Bortezomib; first compound 0.08 µM)	relative viability (DM3189 + Bortezomib; first compound 0.253 µM)	relative viability (DM3189 + Bortezomib; first compound 0.8 µM)	relative viability (DM3189 + Bortezomib; first compound 2.53 µM)	relative viability (DM3189 + Linsitinib; first compound 0.08 µM)	relative viability (DM3189 + Linsitinib; first compound 0.253 µM)	relative viability (DM3189 + Linsitinib; first compound 0.8 µM)	relative viability (DM3189 + Linsitinib; first compound 2.53 µM)	relative viability (DM3189 + Tozasertib; first compound 0.08 µM)	relative viability (DM3189 + Tozasertib; first compound 0.253 µM)	relative viability (DM3189 + Tozasertib; first compound 0.8 µM)	relative viability (DM3189 + Tozasertib; first compound 2.53 µM)	relative viability (DM3189 + Phenformin; first compound 0.08 µM)	relative viability (DM3189 + Phenformin; first compound 0.253 µM)	relative viability (DM3189 + Phenformin; first compound 0.8 µM)	relative viability (DM3189 + Phenformin; first compound 2.53 µM)	relative viability (DM3189 + Pemetrexed; first compound 0.08 µM)	relative viability (DM3189 + Pemetrexed; first compound 0.253 µM)	relative viability (DM3189 + Pemetrexed; first compound 0.8 µM)	relative viability (DM3189 + Pemetrexed; first compound 2.53 µM)
EMC-BAC-2	1.12	1.01	0.956	1.1	0.848	0.8	0.82	0.827	0.302	0.283	0.254	0.323	0.554	0.495	0.456	0.436	0.47	0.395	0.406	0.486
NCI-H727	1.07	0.854	–	0.716	0.255	0.326	–	0.259	0.648	0.568	0.654	0.578	0.628	0.517	–	0.533	–	–	–	–
LU99A	1.23	1.01	–	1.04	0.49	0.49	–	0.445	0.284	0.242	–	0.307	0.964	0.735	–	0.8	0.185	0.233	–	0.161
LK-2	–	–	–	–	0.406	0.321	0.447	0.189	0.183	0.187	0.185	0.166	0.29	0.26	0.228	0.237	0.283	0.198	0.197	0.183
NCI-H322M	1.25	1.38	1.19	1.23	0.891	0.863	0.921	0.977	0.481	0.427	0.448	0.404	0.866	0.782	0.651	0.652	0.64	0.582	0.557	0.501
NCI-H2405	0.986	0.946	0.966	0.96	0.909	0.922	0.792	0.878	0.791	0.7	0.741	0.692	0.384	0.351	0.416	0.411	1.1	0.917	0.997	1.06
NCI-H1563	0.945	0.762	0.887	1.07	1.2	1.22	1.13	1.25	–	–	–	–	0.722	0.602	0.593	0.631	0.715	0.787	0.755	0.752
HCC-827	1.12	0.958	0.985	1.06	0.982	0.863	0.888	0.938	0.376	0.36	0.354	0.377	0.443	0.444	0.441	0.431	0.279	0.244	0.249	0.275
NCI-H1666	0.853	0.783	0.898	0.91	0.861	0.808	0.842	1.04	0.602	0.648	0.737	0.565	0.629	0.545	0.549	0.592	1	0.818	0.844	–
NCI-H358	–	–	–	–	0.766	0.646	0.71	0.584	0.12	0.0936	0.102	0.11	0.453	0.311	0.323	0.269	0.172	0.155	0.181	0.168
201T	1.15	1.07	1.05	1.09	1.07	1.03	1.01	1.08	0.998	0.913	1.02	0.781	0.482	0.429	0.388	0.431	0.347	0.322	0.279	0.331
RERF-LC-KJ	1.61	1.21	1.15	1.26	0.932	0.879	0.861	0.978	0.533	0.456	0.466	0.43	0.451	0.4	0.407	0.426	0.461	0.471	0.469	0.559
NCI-H3122	0.979	0.983	0.973	0.982	0.939	0.907	0.876	0.933	0.38	0.35	0.333	0.382	0.405	0.334	0.355	0.333	0.203	0.197	0.184	0.159
LXF-289	1	0.929	0.988	1.11	0.977	0.939	0.908	1.06	0.208	0.196	0.166	0.236	0.529	0.491	0.501	0.527	0.932	0.986	0.897	0.917
EKVX	1.1	1.01	1.04	1.2	0.896	1	0.717	0.993	0.44	0.407	0.449	0.352	0.251	0.224	0.218	0.242	0.499	–	0.302	0.368
A-427	1.12	0.962	0.876	0.97	1.1	1.03	1.11	1.33	0.191	0.212	0.204	0.216	0.344	0.297	0.284	0.227	1.17	0.897	0.954	1
IA-LM	1.28	0.935	1.37	0.956	0.699	0.682	0.51	0.901	–	–	–	–	–	–	–	–	–	–	–	–
